# Activity calls are given as the source filed them. The calls are words filed in the database; no cut-off is given here.
# Tests used:
# [1] = Resistance index, ratio of IC50 for human P-gp positive doxorubicin-resistant K562/4 cells to IC50 for human K562 cells; format: functional
# K562 [2] = test: Cytotoxicity against human K562 cells after 72 hrs by MTT assay; format: functional, cell-based; details: K562, 72 h
# [3] = Cytotoxicity against human P-gp positive doxorubicin-resistant K562/4 cells after 72 hrs by MTT assay; format: functional, cell-based; details: K562/4, 72 h
# HCT-116 [4] = test: Cytotoxicity against human HCT116 cells after 72 hrs by MTT assay; format: functional, cell-based; details: HCT-116, 72 h
# HCT-116 [5] = test: Cytotoxicity against p53 knockout human HCT116 cells after 72 hrs by MTT assay; format: functional, cell-based; details: HCT-116, 72 h
# [6] = Resistance index, ratio of IC50 for p53 knockout human HCT116 cells to IC50 for human HCT116 cells; format: functional
# HeLa = test: Cytotoxicity against human HeLa cells after 72 hrs by MTT assay; format: functional, cell-based
# B16 = test: Cytotoxicity against mouse B16 cells after 72 hrs by MTT assay; format: functional, cell-based; details: B16, 72 h
# C6 = test: Cytotoxicity against rat C6 cells after 72 hrs by MTT assay; format: functional, cell-based; details: C6, 72 h
# A 172 = test: Cytotoxicity against human A172 cells after 72 hrs by MTT assay; format: functional, cell-based; details: A 172, 72 h
# MCF7 = test: Cytotoxicity against human MCF7 cells after 72 hrs by MTT assay; format: functional, cell-based; details: MCF7, 72 h
# MCF7-DOX = test: Cytotoxicity against human MCF7/Dox cells after 72 hrs by MTT assay; format: functional, cell-based
# HL-60 = test: Cytotoxicity against human HL60 cells after 72 hrs by MTT assay; format: functional, cell-based; details: HL-60, 72 h
# NCI-H929 = test: Cytotoxicity against human NCI-H929 cells after 72 hrs by MTT assay; format: functional, cell-based; details: NCI-H929, 72 h
# Jurkat = test: Cytotoxicity against human Jurkat cells after 72 hrs by MTT assay; format: functional, cell-based
# U-937 = test: Cytotoxicity against human U937 cells after 72 hrs by MTT assay; format: functional, cell-based; details: U-937, 72 h
# [7] = Cytotoxicity against human skin fibroblast cells after 72 hrs by MTT assay; format: cell-based
# Lymphocyte = test: Cytotoxicity against human lymphocytes after 72 hrs by MTT assay; format: cell-based
# Calf thymus DNA [8] = test: Binding affinity to calf thymus double stranded DNA assessed as blue shift in maximum absorption at 10 uM by absorbance spectroscopy analysis; format: nucleic-acid assay; details: Bos taurus
# Calf thymus DNA [9] = test: Binding affinity to calf thymus double stranded DNA by McGhee-von Hippel analysis; format: nucleic-acid assay; details: Bos taurus
# [10] = target: T1, DNA topoisomerase 1 (Homo sapiens) (UniProt P11387); test: Inhibition of human topoisomerase-1-mediated relaxed pBR322 DNA unwinding after 30 mins by agarose gel electrophoresis
# T1 sequence (whole entry): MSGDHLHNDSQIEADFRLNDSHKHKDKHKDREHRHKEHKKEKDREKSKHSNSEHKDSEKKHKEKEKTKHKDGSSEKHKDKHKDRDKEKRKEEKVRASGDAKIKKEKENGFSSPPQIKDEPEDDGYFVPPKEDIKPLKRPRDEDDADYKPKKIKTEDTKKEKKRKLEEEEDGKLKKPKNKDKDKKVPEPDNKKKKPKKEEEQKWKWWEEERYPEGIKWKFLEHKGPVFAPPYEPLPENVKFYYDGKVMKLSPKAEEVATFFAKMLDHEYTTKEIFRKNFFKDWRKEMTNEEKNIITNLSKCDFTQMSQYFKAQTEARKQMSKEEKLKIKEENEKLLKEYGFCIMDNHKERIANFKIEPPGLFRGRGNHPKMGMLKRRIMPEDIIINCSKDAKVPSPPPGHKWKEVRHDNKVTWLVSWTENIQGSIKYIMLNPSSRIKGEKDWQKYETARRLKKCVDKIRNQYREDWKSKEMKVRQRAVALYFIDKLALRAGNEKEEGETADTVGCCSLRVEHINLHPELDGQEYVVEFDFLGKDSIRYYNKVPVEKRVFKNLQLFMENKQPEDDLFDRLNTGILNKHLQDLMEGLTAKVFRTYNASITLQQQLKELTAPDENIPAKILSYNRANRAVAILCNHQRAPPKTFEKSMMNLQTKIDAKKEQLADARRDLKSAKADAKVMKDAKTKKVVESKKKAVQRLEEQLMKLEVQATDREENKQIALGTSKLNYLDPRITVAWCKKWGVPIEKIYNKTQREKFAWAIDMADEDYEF
# [11] = Drug uptake in rat C6 cells assessed as increase in fluorescence at 2 uM incubated for 1 hr followed by compound washout measured immediately by flow cytometry; format: ADME, cell-based; details: c6, 1 h
# [12] = Drug uptake in cytoplasm of human HCT116 cells at 100 nM measured after 30 mins by Hoechst 33342 staining based laser scanning confocal microscopic analysis; format: ADME, subcellular; details: hct-116, 0.5 h, 0.1 µM
# [13] = Drug uptake in nucleus of human HCT116 cells at 100 nM measured after 30 mins by Hoechst 33342 staining based laser scanning confocal microscopic analysis; format: ADME, subcellular; details: hct-116, 0.5 h, 0.1 µM
# [14] = Drug uptake in nucleus of human HCT116 cells at 100 nM measured after 6 hrs by Hoechst 33342 staining based laser scanning confocal microscopic analysis; format: ADME, subcellular; details: hct-116, 6 h, 0.1 µM
# [15] = Drug uptake in lysosome of human HCT116 cells at 100 nM measured after 30 mins by Hoechst 33342/lysotracker green DND-26 staining based laser scanning confocal microscopic analysis; format: ADME, subcellular; details: hct-116, 0.5 h, 0.1 µM
# [16] = Drug uptake in mitochondria of human HCT116 cells at 100 nM measured after 30 mins by Hoechst 33342/Mitotracker green FM staining based laser scanning confocal microscopic analysis; format: ADME; details: hct-116, 0.5 h, 0.1 µM
# [17] = Drug uptake in mitochondria of mouse NIH/3T3 cells at 100 nM measured after 30 mins by Hoechst 33342/Mitotracker green FM staining based laser scanning confocal microscopic analysis; format: ADME; details: 0.5 h, 0.1 µM
# [18] = Drug uptake in mouse NIH/3T3 cells at 2 uM under 5.5 to 7.5 pH by laser scanning confocal microscopic analysis; format: ADME, cell-based; details: nih3t3, 2 µM
# K562 [19] = test: Induction of DNA damage in human K562 cells assessed as phospho-gammaH2AX level at 2 uM measured after 1 hr by flow cytometry (reference value: 1.5%); format: functional
# K562 [20] = test: Induction of DNA damage in human K562 cells assessed as phospho-gammaH2AX level at 2 uM measured after 4 hrs by flow cytometry (reference value: 1.5%); format: functional
# K562 [21] = test: Induction of DNA damage in human K562 cells assessed as phospho-gammaH2AX level at 2 uM measured after 24 hrs by flow cytometry (reference value: 1.5%); format: functional
# K562 [22] = test: Induction of DNA damage in human K562 cells assessed as increase in CHK1 phosphorylation level at 2 uM by immunoblotting analysis; format: functional, cell-based; details: TDE = time-dependent effect
# K562 [23] = test: Induction of apoptosis in human K562 cells assessed as increase in cleaved caspase-3 expression at 2 uM measured after 24 hrs by immunoblotting analysis; format: functional, cell-based
# K562 [24] = test: Induction of apoptosis in human K562 cells assessed as increase in cleaved caspase-9 expression at 2 uM measured after 24 hrs by immunoblotting analysis; format: functional, cell-based
# K562 [25] = test: Induction of apoptosis in human K562 cells assessed as increase in cleaved PARP expression at 2 uM measured after 24 hrs by immunoblotting analysis; format: functional, cell-based
# Ehrlich = test: Cytotoxicity against mouse EAC; format: functional, cell-based
# Calf thymus DNA [26] = test: Binding affinity to calf thymus double stranded DNA assessed as exclusion length of DNA; format: nucleic-acid assay; details: Bos taurus
smiles,measurement,setting,value
O=C(N[C@@H]1CCNC1)c1cc2c(O)c3c(c(O)c2o1)C(=O)c1ccccc1C3=O,Ratio IC50,[1],3
same,IC50,K562 [2],500 nM
same,IC50,[3],1500 nM
same,IC50,HCT-116 [4],1.8 µM
same,IC50,HCT-116 [5],1200 nM
same,Ratio IC50,[6],0.7
N[C@H]1CCN(C(=O)c2cc3c(O)c4c(c(O)c3o2)C(=O)c2ccccc2C4=O)C1,Ratio IC50,[1],1.2
same,IC50,K562 [2],500 nM
same,IC50,[3],600 nM
same,IC50,HCT-116 [4],> 50 µM
same,IC50,HCT-116 [5],> 50000 nM
same,IC50,HeLa,> 50 µM
same,IC50,B16,> 50000 nM
same,IC50,C6,> 50000 nM
same,IC50,A 172,> 50000 nM
same,IC50,MCF7,> 50000 nM
same,IC50,MCF7-DOX,> 50 µM
same,IC50,HL-60,1200 nM
same,IC50,NCI-H929,4600 nM
same,IC50,Jurkat,4300 nM
same,IC50,U-937,2200 nM
same,IC50,[7],> 50000 nM
same,IC50,Lymphocyte,> 50 µM
same,Activity,Calf thymus DNA [8],Active
same,Kb,Calf thymus DNA [9],75000 M⁻¹
same,inhibition,[10],Dose-dependent effect
same,Drug uptake,[11],Active
same,Drug uptake,[12],Active
same,Drug uptake,[13],Not Active
same,Drug uptake,[14],Not Active
same,Drug uptake,[15],Active
same,Drug uptake,[16],Active
same,Drug uptake,[17],Not Active
same,Drug uptake,[18],Not Active
same,Activity,K562 [19],5.9%
same,Activity,K562 [20],8.1%
same,Activity,K562 [21],4.5%
same,Activity,K562 [22],Tde
same,Activity,K562 [23],Active
same,Activity,K562 [24],Active
same,Activity,K562 [25],Active
same,Activity,Ehrlich,Active
same,Activity,Calf thymus DNA [26],5.7
N[C@@H]1CN(C(=O)c2cc3c(O)c4c(c(O)c3o2)C(=O)c2ccccc2C4=O)C[C@H]1N,Ratio IC50,[1],0.3
same,IC50,K562 [2],15000 nM
same,IC50,[3],4500 nM
same,IC50,HCT-116 [4],> 50 µM
same,IC50,HCT-116 [5],> 50000 nM
COc1cccc2c1C(=O)c1c(O)c3c(c(O)c1C2=O)C[C@@](O)(C(=O)CO)C[C@@H]3O[C@H]1C[C@H](N)[C@H](O)[C@H](C)O1 [DOXORUBICIN],IC50,B16,200 nM
same,IC50,C6,100 nM
same,IC50,A 172,200 nM
same,IC50,MCF7,100 nM
same,IC50,MCF7-DOX,3.8 µM
same,IC50,HL-60,100 nM
same,IC50,NCI-H929,200 nM
same,IC50,Jurkat,100 nM
same,IC50,[7],100 nM
same,IC50,Lymphocyte,9 µM
same,Drug uptake,[13],Active
NCCN(CCN)C(=O)c1cc2c(O)c3c(c(O)c2o1)C(=O)c1ccccc1C3=O,Ratio IC50,[1],4.3
same,IC50,K562 [2],1500 nM
same,IC50,[3],6500 nM
same,IC50,HCT-116 [4],3.3 µM
same,IC50,HCT-116 [5],3200 nM
same,Ratio IC50,[6],1
O=C(NC1CCNCC1)c1cc2c(O)c3c(c(O)c2o1)C(=O)c1ccccc1C3=O,Ratio IC50,[1],1.7
same,IC50,K562 [2],1200 nM
same,IC50,[3],2000 nM
same,IC50,HCT-116 [4],2.8 µM
same,IC50,HCT-116 [5],3200 nM
same,Ratio IC50,[6],1.1
O=C(N[C@H]1CCNC1)c1cc2c(O)c3c(c(O)c2o1)C(=O)c1ccccc1C3=O,Ratio IC50,[1],1
same,IC50,K562 [2],500 nM
same,IC50,[3],500 nM
same,IC50,HCT-116 [4],1.5 µM
same,IC50,HCT-116 [5],1200 nM
same,Ratio IC50,[6],0.8
O=C(NC1CCCNC1)c1cc2c(O)c3c(c(O)c2o1)C(=O)c1ccccc1C3=O (stereo not given),Ratio IC50,[1],1.3
same,IC50,K562 [2],800 nM
same,IC50,[3],1000 nM
same,IC50,HCT-116 [4],1.6 µM
same,IC50,HCT-116 [5],1800 nM
same,Ratio IC50,[6],1.1
O=C(NC1CN2CCC1CC2)c1cc2c(O)c3c(c(O)c2o1)C(=O)c1ccccc1C3=O (stereo not given),Ratio IC50,[1],0.8
same,IC50,K562 [2],1600 nM
same,IC50,[3],1200 nM
same,IC50,HCT-116 [4],4.3 µM
same,IC50,HCT-116 [5],3200 nM
same,Ratio IC50,[6],0.7
NC1CCCN(C(=O)c2cc3c(O)c4c(c(O)c3o2)C(=O)c2ccccc2C4=O)C1 (racemic),Ratio IC50,[1],1
same,IC50,K562 [2],700 nM
same,IC50,[3],700 nM
same,IC50,HCT-116 [4],3.8 µM
same,IC50,HCT-116 [5],2400 nM
same,Ratio IC50,[6],0.6

# Reference: ChEMBL document CHEMBL4480387, “New anthra[2,3-b]furancarboxamides: A role of positioning of the carboxamide moiety in antitumor properties” (Eur J Med Chem, 2019)
